In patent US20150297629A1, “MODULATION OF RENIN-ANGIOTENSIN SYSTEM (RAS) RELATED DISEASES BY ANGIOTENSINOGEN” (Isis Pharmaceuticals, Inc,, priority 2012, published 2015):

Experiments:
renin mRNA = test: Real-time PCR of kidney renin mRNA in SHR, Study 3; assay type: in vivo, Spontaneously hypertensive (SHR) rats; settings: 3 weeks
Procedure: A control group of SHR was injected with phosphate buffered saline (PBS) administered weekly for 3 weeks. Another control group of SHR was injected with 100 mg/kg/week of a control oligonucleotide (a nucleotide not targeted to angiotensinogen) administered for 3 weeks. […] RNA was extracted from kidney tissue for real-time PCR analysis of renin, using primer probe set rRenin2 (forward sequence [NT], designated herein as SEQ ID NO: 21; reverse sequence [NT], designated herein as SEQ ID NO: 22; probe sequence [NT], designated herein as SEQ ID NO: 23). The mRNA levels were normalized using the housekeeping gene, GAPDH. […] Increase in renin in the body is deleterious to the overall health of the animal (Nguyen and Muller, The Biology of the (Pro)Renin Receptor, J Am Soc Nephrol, 2010 January, 21(1):18-23). […] Results are presented as percent expression of renin, relative to control.

angiotensinogen protein = test: ELISA of angiotensinogen plasma levels in SHR, Study 3; assay type: in vivo, Spontaneously hypertensive (SHR) rats; settings: 3 weeks, oligonucleotides 100 mg/kg/week, Captopril 150 mg/kg/day
Procedure: (§1) A group of SHR was injected with 100 mg/kg/week of ISIS 552668 administered for 3 weeks. A control group of SHR was injected with phosphate buffered saline (PBS) administered weekly for 3 weeks. Another control group of SHR was injected with 100 mg/kg/week of a control oligonucleotide (a nucleotide not targeted to angiotensinogen) administered for 3 weeks.
Angiotensinogen plasma levels were measured by ELISA (IBL International, Toronto, Canada). […] Results are presented as percent inhibition of angiotensinogen, relative to PBS control.

SHR [1] = test: Mean arterial pressure by tail-cuff method in SHR, Study 3; assay type: in vivo, Spontaneously hypertensive (SHR) rats; settings: ISIS 552668 and control oligonucleotide 100 mg/kg/week, Captopril 150 mg/kg/day
Procedure: A control group of SHR was injected with phosphate buffered saline (PBS) administered weekly for 3 weeks. Another control group of SHR was injected with 100 mg/kg/week of a control oligonucleotide (a nucleotide not targeted to angiotensinogen) administered for 3 weeks. […] Mean arterial pressure (MAP) in the rats was measured by the tail-cuff volume-pressure method (Kent Scientific, Torrington, Conn.).

angiotensinogen mRNA = test: Real-time PCR of angiotensinogen mRNA in SHR tissues, Study 3; assay type: in vivo, Spontaneously hypertensive (SHR) rats; settings: 3 weeks, oligonucleotides 100 mg/kg/week, Captopril 150 mg/kg/day
Procedure: as §1
[…] The mRNA levels were normalized using the housekeeping gene, GAPDH. […] Results are presented as percent inhibition of angiotensinogen, relative to control.

SHR [2] = test: Systolic blood pressure by tail-cuff method in SHR before and after ISIS 552668 added to chronic Captopril, Study 4; assay type: in vivo, Spontaneously hypertensive (SHR) rats; settings: for Blood pressure (SBP), After ISIS 552668 dosing: then 50 mg/kg ISIS 552668 added
female SHR rats = test: Blood pressure by tail-cuff method in female SHR rats with subsequent Captopril, Study 2; assay type: in vivo, Spontaneously hypertensive (SHR) rats; settings: Captopril 50 mg/kg/day for 4 days, no ASO
Procedure: A control group of female SHR rats was injected with phosphate buffered saline (PBS) administered weekly for 2 weeks. Another control group constituted a group of wild-type rats injected with phosphate buffered saline (PBS) administered weekly for 2 weeks. […] Systolic blood pressure (SBP), mean arterial pressure (MAP), and diastolic blood pressure (DBP) in the rats was measured by the tail-cuff volume-pressure method (Kent Scientific, Torrington, Conn.).

Dahl/SS rats = test: Blood pressure by tail-cuff method in Dahl/SS rats; assay type: in vivo, Dahl/Salt Sensititive (Dahl/SS) rats; settings: female Dahl/SS rats, 8% NaCl diet; 3 weeks; ISIS oligonucleotides 40 mg/kg/week, Captopril 150 mg/kg daily
Procedure: The rats were fed a diet with 8% NaCl. A group of female Dahl/SS rats was injected with 40 mg/kg/week of ISIS 552668 administered for 3 weeks. A group of female Dahl/SS rats was injected with 40 mg/kg/week of control oligonucleotides ISIS 141923 administered for 3 weeks. […] A control group of female Dahl/SS rats was injected with phosphate buffered saline (PBS) administered weekly for 3 weeks. Another control group constituted a group of Dahl/Salt Resistant (Dahl/SR) rats injected with phosphate buffered saline (PBS) administered weekly for 3 weeks.
Systolic blood pressure (SBP), mean arterial pressure (MAP), and diastolic blood pressure (DBP) in the rats was measured by the tail-cuff volume-pressure method (Kent Scientific). The results are presented in Table 12, expressed as the percent decrease in blood pressure compared to the control SHR group.

[3] = Captopril 25 mg/kg/day for 10 weeks
[4] = Captopril 50 mg/kg/day for 10 weeks
[5] = Captopril 100 mg/kg/day for 10 weeks

Compound: C[C@H](CS)C(=O)N1CCC[C@H]1C(=O)O [Captopril, reference compound]
- Induction of kidney renin expression compared to that with ISIS 552668 (renin mRNA; Captopril 150 mg/kg/day versus ISIS 552668 100 mg/kg/week): about three-fold
- Percent increase of kidney renin mRNA (renin mRNA; oligonucleotides 100 mg/kg/week, Captopril 150 mg/kg/day, PBS = 100): 1110%
- Percent inhibition of angiotensinogen protein in the plasma compared to the PBS control (angiotensinogen protein): 24%
- MAP, Week 1 (SHR [1]): 107 mm Hg
- MAP, Week 2 (SHR [1]): 109 mm Hg
- MAP, Week 3 (SHR [1]): 112 mm Hg
- Percent inhibition of angiotensinogen mRNA compared to the PBS control, Heart (angiotensinogen mRNA): 0%
- Percent inhibition of angiotensinogen mRNA compared to the PBS control, Kidney (angiotensinogen mRNA): 41%
- Percent inhibition of angiotensinogen mRNA compared to the PBS control, Liver (angiotensinogen mRNA): 0%
- Blood pressure (SBP), Before ISIS 552668 dosing (SHR [2]; [3]): 159
- Blood pressure (SBP), After ISIS 552668 dosing (SHR [2]; [3]): 153
- Blood pressure (SBP), Before ISIS 552668 dosing (SHR [2]; [4]): 147
- Blood pressure (SBP), After ISIS 552668 dosing (SHR [2]; [4]): 133
- Blood pressure (SBP), Before ISIS 552668 dosing (SHR [2]; [5]): 137
- Blood pressure (SBP), After ISIS 552668 dosing (SHR [2]; [5]): 127
- Blood pressure (SBP), Before ISIS 552668 dosing (SHR [2]; Captopril 200 mg/kg/day for 10 weeks): 135
- DBP (female SHR rats): 97 mm Hg
- MAP (female SHR rats): 113 mm Hg
- SBP (female SHR rats): 145 mm Hg
- DBP (Dahl/SS rats): 111 mm Hg
- MAP (Dahl/SS rats): 128 mm Hg
- SBP (Dahl/SS rats): 162 mm Hg
